Test results reported in patent publication US20260297129A1, “PEPTIDES AS SELECTIVE IL-23 RECEPTOR INHIBITORS” (SANOFI, priority 2023, published 2026).
Converted amounts (≈) assume the structure as drawn. Read-outs that look alike come from different tables or passages of the source. Numbered stars: 1 amine (or outer) side, 2 acyl side, 3 side chain; on linkers, the order of the positions; unused ones are H or OH. Bridge positions count the residues as written; N and C are the ends. Square brackets hold non-standard residues; d marks the D form. Peptide text beside a SMILES is read from it. * marks the point of attachment. Trp(7-Me) = Cc1cccc2c(C[C@H](N)C(=O)O)c[nH]c12; 2Nal = N[C@@H](Cc1ccc2ccccc2c1)C(=O)O; Suberoyl = O=C(CCCCCCC(=O)[*:2])[*:1]; d2Nal = N[C@H](Cc1ccc2ccccc2c1)C(=O)O; 3Pal = N[C@@H](Cc1cccnc1)C(=O)O; 12Ado = NCCCCCCCCCCCC(=O)O; Aun = NCCCCCCCCCCC(=O)O; Thp = NC1(C(=O)O)CCOCC1; Me2NCH2CH2 = CN(C)CC*; Aib = CC(C)(N)C(=O)O; Sar = CNCC(=O)O

Assays:
[1] = Solubility of peptide compounds in buffer formulations (Table 5); type: physicochemical; details: target 1 mg/ml
Summary of the method: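 Solubility was quantified by UHPLC-UV, comparing 1:10-diluted filtrate peak areas with a DMSO reference standard and correcting for extinction coefficients. Samples were prepared from dried DMSO stock at 1 mg/mL nominal in pH 1.2 HCl, pH 6.5 or pH 7.4 phosphate (50 mM), and agitated 2 h.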

[2] = Protease stability in simulated gastric fluids (FaSSGF) (Table 7); type: in vitro ADME; details: fassgf with pepsin, 60 min, 37° C., read-out: Remaining percentage of peptide compound, FaSSGF 60 (min)
Summary of the method: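 Peptides at 1 μM final were incubated at 37 °C in simulated gastric fluid with pepsin (320 mg per 100 mL SGF concentrate). Samples were quenched with ethanol (0.1% HCOOH) at 0, 60, 120 and 240 min and analysed by LC-MS/MS. Percent remaining is the peak area relative to T0 (100%).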

[3] = Protease stability in simulated intestinal fluids (FaSSIF) (Table 7); type: in vitro ADME; details: fassif with pancreatin, 37° C.; for remaining at 1 h, 1 µM: 60 min, read-out: Remaining percentage of peptide compound, FaSSIF 60 (min); for remaining at 2 h, 1 µM: 120 min, read-out: Remaining percentage of peptide compound, FaSSIF 120 (min); for remaining at 4 h, 1 µM: 240 min, read-out: Remaining percentage of peptide compound, FaSSIF 240 (min)
Summary of the method: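 Percent parent remaining was derived from LC-MS/MS peak areas normalised to time 0, set at 100%. Sampling at 0, 60, 120 and 240 min, quenched in ethanol with 0.1% HCOOH. Final peptide 1 μM, 37° C, SIF containing pancreatin.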

human IL-23R = molecular target: T1, human IL-23R (Homo sapiens, UniProt Q5VWK5); assay: Inhibition of IL-23 binding to IL-23R as measured by ELISA (Table 8); details: human IL23 coated 1 μg/ml; human IL-23R-Fc 0.1 μg/ml; 60 min; read-out: Human ELISA IL23/IL23R IC50
T1 sequence (Q5VWK5 24-353 limits assumed): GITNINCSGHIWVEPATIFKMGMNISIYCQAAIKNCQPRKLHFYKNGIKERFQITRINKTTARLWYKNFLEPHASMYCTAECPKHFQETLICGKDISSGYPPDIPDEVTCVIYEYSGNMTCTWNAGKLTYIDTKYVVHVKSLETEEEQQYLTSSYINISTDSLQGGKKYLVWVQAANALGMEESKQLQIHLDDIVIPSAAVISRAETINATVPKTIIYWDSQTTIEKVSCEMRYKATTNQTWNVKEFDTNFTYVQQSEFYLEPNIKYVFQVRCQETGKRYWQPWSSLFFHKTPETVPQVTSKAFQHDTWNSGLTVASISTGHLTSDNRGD
Description: Antagonism of compounds for human interleukin-23 receptor inhibitors, was determined by an ELISA assay.
A 384-well plate was coated with 50 μl/well of human IL23 at a final concentration of 1 μg/ml and incubated overnight at 4° C. The wells were washed 3 times with 80 μl wash buffer and blocked with 80 μl blocking buffer for 60 minutes at room temperature and washed again. 20 μl of serially diluted test peptides was added to each well and subsequently 20 μl of recombinant human IL-23R-Fc chimera at final concentration of 0.1 μg/ml. The plate was incubated for 60 minutes at room temperature. After the wells were washed, bound IL23R-Fc was detected with goat anti-hu-IgG1-HRP antibody. Signals were visualized with QUANTABLU fluorogenic peroxidase substrate.

[4] = Buffer pH 1.1 (head; method: 50 mM HCl pH 1.2), 2 h agitation, read-out: Solubility, Buffer pH 1.1
[5] = aqueous buffer, 50 mM phosphate buffer pH 6.5, 2 h agitation, read-out: Solubility, Buffer pH 6.5
[6] = aqueous buffer, 50 mM phosphate buffer pH 7.4, 2 h agitation, read-out: Solubility, Buffer pH 7.4

solubility at 2 h [1, 4] [µg/mL]	solubility at 2 h [1, 5] [µg/mL]	solubility at 2 h [1, 6] [µg/mL]	remaining at 1 h, 1 µM [2] [%]	remaining at 1 h, 1 µM [3] [%]	remaining at 2 h, 1 µM [3] [%]	remaining at 4 h, 1 µM [3] [%]	IC50 (human IL-23R) [nM]	SMILES
≥ 1050	≥ 1100	≥ 1150	104	79	77	78	0.61	Cc1cccc2c(C[C@@H]3NC(=O)CCCCCCC(=O)NCCCC[C@@H](C(=O)N[C@@H](CC(N)=O)C(=O)N[C@@H](Cc4cccnc4)C(=O)N(C)CC(N)=O)NC(=O)C(C)(C)NC(=O)[C@H](Cc4ccc5ccccc5c4)NC(=O)[C@H](Cc4ccc(OCCN(C)C)cc4)NC(=O)C4(CCOCC4)NC(=O)[C@H](CCC(N)=O)NC3=O)c[nH]c12 [compound 12] ([Trp(7-Me)]Q[Thp]Y(Me2NCH2CH2)[2Nal][Aib]KN[3Pal][Sar]-NH2; linker N-7 via Suberoyl)
≥ 970	270 (≈ 167 µM)	60 (≈ 37.1 µM)	80	90	87	82	0.62	Cc1cccc2c(C[C@@H]3NC(=O)CCCCCCCCCCNC(=O)CC[C@@H](C(=O)N[C@@H](CC(N)=O)C(=O)N[C@@H](Cc4cccnc4)C(=O)N(C)CC(N)=O)NC(=O)C(C)(C)NC(=O)[C@@H](Cc4ccc5ccccc5c4)NC(=O)[C@H](Cc4ccc(OCCN(C)C)cc4)NC(=O)C4(CCOCC4)NC(=O)[C@H](CCC(N)=O)NC3=O)c[nH]c12 [compound 4] ([Aun][Trp(7-Me)]Q[Thp]Y(Me2NCH2CH2)[d2Nal][Aib]EN[3Pal][Sar]-NH2; lactam N-8)
≥ 1140	220 (≈ 135 µM)	10 (≈ 6.13 µM)	73	100	94	94	0.32	Cc1cccc2c(C[C@@H]3NC(=O)CCCCCCCCCCCNC(=O)CC[C@@H](C(=O)N[C@@H](CC(N)=O)C(=O)N[C@@H](Cc4cccnc4)C(=O)N(C)CC(N)=O)NC(=O)C(C)(C)NC(=O)[C@H](Cc4ccc5ccccc5c4)NC(=O)[C@H](Cc4ccc(OCCN(C)C)cc4)NC(=O)C4(CCOCC4)NC(=O)[C@H](CCC(N)=O)NC3=O)c[nH]c12 [compound 2] ([12Ado][Trp(7-Me)]Q[Thp]Y(Me2NCH2CH2)[2Nal][Aib]EN[3Pal][Sar]-NH2; lactam N-8)
